Read-outs that look alike come from different tables or passages of the source.
Target: T1, recombinant human NaV1.8 stably transfected HEK cells (Homo sapiens, UniProt Q9Y5Y9)
T1 construct: expressed in transfected cells; host or cells: HEK cells, stably transfected
Experiment: Compound profiling on NaV1.8, human NaV1.8 cell line, SyncroPatch384PE automated patch clamp assay (Example 102, first set of compounds, Table 16)
Type: cell-based
Conditions: human NaV1.8 HEK cells, Table 16 (first set of compounds)
Method in brief: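 IC50s come from two read-outs: resting-state block (P1, 10 mV step from −120 mV) and inactivated-state block (P2, after 10 s at −40 mV), scaled between DMSO and 250 μM tetracaine. Compounds (20–0.001 μM final, 1:3 steps) were applied for 5 min, 15 s sweeps. Cells kept at 30 °C the day before.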

[1] = inactivated state block (P2 measurement), read-out: P2IC50
[2] = resting state block (P1 measurement), read-out: P1IC50

T1 sequence (Q9Y5Y9 whole entry): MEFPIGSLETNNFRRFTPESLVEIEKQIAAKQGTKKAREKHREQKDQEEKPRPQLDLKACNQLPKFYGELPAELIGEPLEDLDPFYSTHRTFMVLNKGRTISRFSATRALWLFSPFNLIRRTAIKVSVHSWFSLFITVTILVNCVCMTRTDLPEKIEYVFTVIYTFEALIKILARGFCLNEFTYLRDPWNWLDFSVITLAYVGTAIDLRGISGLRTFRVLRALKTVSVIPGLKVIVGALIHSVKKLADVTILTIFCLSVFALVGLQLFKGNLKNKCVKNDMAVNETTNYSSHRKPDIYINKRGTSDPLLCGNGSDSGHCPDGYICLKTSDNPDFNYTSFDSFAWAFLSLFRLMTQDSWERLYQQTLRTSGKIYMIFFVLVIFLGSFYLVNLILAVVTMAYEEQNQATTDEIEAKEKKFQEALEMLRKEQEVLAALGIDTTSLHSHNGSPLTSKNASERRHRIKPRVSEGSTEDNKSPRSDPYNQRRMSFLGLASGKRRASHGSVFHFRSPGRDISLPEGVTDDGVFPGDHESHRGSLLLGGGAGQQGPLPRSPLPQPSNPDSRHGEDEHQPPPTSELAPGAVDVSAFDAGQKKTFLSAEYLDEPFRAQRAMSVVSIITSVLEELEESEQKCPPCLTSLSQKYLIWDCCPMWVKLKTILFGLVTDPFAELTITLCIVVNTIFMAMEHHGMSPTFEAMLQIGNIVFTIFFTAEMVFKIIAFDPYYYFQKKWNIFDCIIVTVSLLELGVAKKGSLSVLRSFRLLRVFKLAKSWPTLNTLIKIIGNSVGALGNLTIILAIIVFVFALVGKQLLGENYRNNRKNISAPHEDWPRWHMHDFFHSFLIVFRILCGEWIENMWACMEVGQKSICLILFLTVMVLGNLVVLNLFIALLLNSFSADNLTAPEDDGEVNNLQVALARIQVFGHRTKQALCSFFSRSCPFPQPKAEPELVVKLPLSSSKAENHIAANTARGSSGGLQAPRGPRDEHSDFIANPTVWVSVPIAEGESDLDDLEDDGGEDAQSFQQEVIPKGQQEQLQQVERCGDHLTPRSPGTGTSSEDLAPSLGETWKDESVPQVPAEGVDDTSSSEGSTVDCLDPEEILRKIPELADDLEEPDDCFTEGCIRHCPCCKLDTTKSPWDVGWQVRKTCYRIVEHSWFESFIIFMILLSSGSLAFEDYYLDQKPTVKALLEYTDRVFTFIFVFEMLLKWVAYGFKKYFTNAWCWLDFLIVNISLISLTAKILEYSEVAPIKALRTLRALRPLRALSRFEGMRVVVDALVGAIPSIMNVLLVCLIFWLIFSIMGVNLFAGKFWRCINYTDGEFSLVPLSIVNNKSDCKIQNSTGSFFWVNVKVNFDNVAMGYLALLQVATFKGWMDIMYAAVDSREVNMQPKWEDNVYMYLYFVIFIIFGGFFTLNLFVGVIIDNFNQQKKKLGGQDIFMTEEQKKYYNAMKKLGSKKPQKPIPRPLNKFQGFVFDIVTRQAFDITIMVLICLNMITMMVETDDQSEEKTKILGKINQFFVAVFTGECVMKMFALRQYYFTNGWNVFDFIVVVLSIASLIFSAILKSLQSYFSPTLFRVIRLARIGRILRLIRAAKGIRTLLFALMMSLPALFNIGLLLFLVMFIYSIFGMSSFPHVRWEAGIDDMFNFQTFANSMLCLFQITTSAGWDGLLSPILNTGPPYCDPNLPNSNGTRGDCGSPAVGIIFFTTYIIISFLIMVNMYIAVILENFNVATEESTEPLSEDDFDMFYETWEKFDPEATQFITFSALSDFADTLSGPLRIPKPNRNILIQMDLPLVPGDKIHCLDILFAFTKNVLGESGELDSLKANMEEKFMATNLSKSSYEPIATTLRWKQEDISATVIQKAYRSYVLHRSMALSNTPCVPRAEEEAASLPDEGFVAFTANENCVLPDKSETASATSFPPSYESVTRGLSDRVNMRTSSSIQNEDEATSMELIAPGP

SMILES | IC50 [1] | IC50 [2]
Cc1cc(F)ccc1Oc1nnc(C(F)(F)F)c(NC2CNC2)c1C(=O)Nc1cccc([S@@](C)(=N)=O)c1 [Compound 1523, (S)-5-(azetidin-3-ylamino)-3-(4-fluoro-2-methylphenoxy)-N-(3-(S-methylsulfonimidoyl)phenyl)-6-(trifluoromethyl)pyridazine-4-carboxamide] | 0.2 to 0.5 µM | 0.2 to 0.5 µM
Cc1cc(F)ccc1Oc1nnc(C(F)(F)F)c(N2CCOCC2)c1C(=O)Nc1cccc([S@@](C)(=N)=O)c1 [Compound 1524, (S)-3-(4-fluoro-2-methylphenoxy)-N-(3-(S-methylsulfonimidoyl)phenyl)-5-morpholino-6-(trifluoromethyl)pyridazine-4-carboxamide] | 0.2 to 0.5 µM | 0.2 to 0.5 µM
COc1cc(C#N)ccc1Oc1nnc(C2CC2(F)F)c(C)c1C(=O)Nc1cccc([S@@](C)(=N)=O)c1 (stereo partly drawn) [Compound 1528, 3-(4-cyano-2-methoxyphenoxy)-6-(2,2-difluorocyclopropyl)-N-{3-[(S)-imino(methyl)oxo-λ^6-sulfanyl]phenyl}-5-methylpyridazine-4-carboxamide] | 0.04 to 0.2 µM | 0.04 to 0.2 µM
COc1cc(C#N)ccc1Oc1nnc(-c2ccc(C)cc2)c(C)c1C(=O)Nc1cccc([S@](C)(=N)=O)c1 [Compound 1529, 3-(4-cyano-2-methoxyphenoxy)-N-{3-[(R)-imino(methyl)oxo-λ6-sulfanyl]phenyl}-5-methyl-6-(4-methylphenyl)pyridazine-4-carboxamide] | ≤ 0.02 µM | ≤ 0.02 µM
COc1cc(C#N)ccc1Oc1nnc(-c2ccc(C)cc2)c(C)c1C(=O)Nc1cccc([S@@](C)(=N)=O)c1 [Compound 1530, 3-(4-cyano-2-methoxyphenoxy)-N-{3-[(S)-imino(methyl)oxo-λ^6-sulfanyl]phenyl}-5-methyl-6-(4-methylphenyl)pyridazine-4-carboxamide] | 0.04 to 0.2 µM | 0.04 to 0.2 µM
COc1cc(C#N)ccc1Oc1nnc(-c2ccc(C(F)F)cc2)c(C)c1C(=O)Nc1cccc([S@@](C)(=N)=O)c1 [Compound 1533, 3-(4-cyano-2-methoxyphenoxy)-6-[4-(difluoromethyl)phenyl]-N-{3-[(S)-imino(methyl)oxo-λ^6-sulfanyl]phenyl}-5-methylpyridazine-4-carboxamide] | 0.02 to 0.04 µM | 0.02 to 0.04 µM
COc1cc(C#N)ccc1Oc1nnc(-c2ccc(C(F)F)cc2)c(C)c1C(=O)Nc1cccc([S@](C)(=N)=O)c1 [Compound 1534, 3-(4-cyano-2-methoxyphenoxy)-6-[4-(difluoromethyl)phenyl]-N-{3-[(R)-imino(methyl)oxo-λ^6-sulfanyl]phenyl}-5-methylpyridazine-4-carboxamide] | 0.02 to 0.04 µM | 0.02 to 0.04 µM
COc1ccc(-c2nnc(Oc3ccc(C#N)cc3OC)c(C(=O)Nc3cccc([S@](C)(=N)=O)c3)c2C)cc1 [Compound 1535, 3-(4-cyano-2-methoxyphenoxy)-N-{3-[(R)-imino(methyl)oxo-λ^6-sulfanyl]phenyl}-6-(4-methoxyphenyl)-5-methylpyridazine-4-carboxamide] | 0.02 to 0.04 µM | 0.02 to 0.04 µM
COc1ccc(-c2nnc(Oc3ccc(C#N)cc3OC)c(C(=O)Nc3cccc([S@@](C)(=N)=O)c3)c2C)cc1 [Compound 1536, 3-(4-cyano-2-methoxyphenoxy)-N-{3-[(S)-imino(methyl)oxo-λ^6-sulfanyl]phenyl}-6-(4-methoxyphenyl)-5-methylpyridazine-4-carboxamide] | 0.04 to 0.2 µM | 0.04 to 0.2 µM
COc1cc(C#N)ccc1Oc1nnc(-c2ccccc2F)c(C)c1C(=O)Nc1cccc([S@](C)(=N)=O)c1 [Compound 1537, 3-(4-cyano-2-methoxyphenoxy)-6-(2-fluorophenyl)-N-{3-[(R)-imino(methyl)oxo-λ^6-sulfanyl]phenyl}-5-methylpyridazine-4-carboxamide] | 0.02 to 0.04 µM | 0.02 to 0.04 µM
Cc1cc(F)ccc1Oc1nnc(C(C)O)c(C)c1C(=O)Nc1cccc(S(C)(=N)=O)c1 (stereo not drawn) [Compound 1547, 3-(4-fluoro-2-methyl-phenoxy)-6-(1-hydroxyethyl)-5-methyl-N-[3-(methylsulfonimidoyl)phenyl]pyridazine-4-carboxamide] | 0.2 to 0.5 µM | 0.2 to 0.5 µM
COc1c(Oc2nnc(C(F)(F)F)c(C)c2C(=O)Nc2cccc(C(N)=O)c2)ccc(F)c1F [Compound 1549, N-(3-carbamoylphenyl)-3-(3,4-difluoro-2-methoxy-phenoxy)-5-methyl-6-(trifluoromethyl)pyridazine-4-carboxamide] | ≤ 0.02 µM | ≤ 0.02 µM

Now from value to compound:

IC50 [1] | IC50 [2] | SMILES
≤ 0.02 µM | ≤ 0.02 µM | Cc1cc(C#N)ccc1Oc1nnc(C(F)(F)F)c(C)c1C(=O)Nc1cccc([S@@](C)(=N)=O)c1 [Compound 1525, 3-(4-cyano-2-methylphenoxy)-N-{3-[(S)-imino(methyl)oxo-λ^6-sulfanyl]phenyl}-5-methyl-6-(trifluoromethyl)pyridazine-4-carboxamide]
≤ 0.02 µM | ≤ 0.02 µM | Cc1cc(C#N)ccc1Oc1nnc(C(F)(F)F)c(C)c1C(=O)Nc1cccc([S@](C)(=N)=O)c1 [Compound 1526, 3-(4-cyano-2-methylphenoxy)-N-{3-[(R)-imino(methyl)oxo-λ^6-sulfanyl]phenyl}-5-methyl-6-(trifluoromethyl)pyridazine-4-carboxamide]
0.02 to 0.04 µM | 0.02 to 0.04 µM | COc1cc(C#N)ccc1Oc1nnc(-c2ccc(C#N)cc2)c(C)c1C(=O)Nc1ccc[n+]([O-])c1 [Compound 1527, 3-(4-cyano-2-methoxy-phenoxy)-6-(4-cyanophenyl)-5-methyl-N-(1-oxidopyridin-1-ium-3-yl)pyridazine-4-carboxamide]
0.04 to 0.2 µM | 0.04 to 0.2 µM | COc1cc(C#N)ccc1Oc1nnc(-c2ccc(C#N)cc2)c(C)c1C(=O)Nc1cccc([S@](C)(=N)=O)c1 [Compound 1531, (R)-3-(4-cyano-2-methoxyphenoxy)-6-(4-cyanophenyl)-5-methyl-N-(3-(S-methylsulfonimidoyl)phenyl)pyridazine-4-carboxamide]
0.04 to 0.2 µM | 0.04 to 0.2 µM | COc1cc(C#N)ccc1Oc1nnc(-c2ccc(C#N)cc2)c(C)c1C(=O)Nc1cccc([S@@](C)(=N)=O)c1 [Compound 1532, 3-(4-cyano-2-methoxyphenoxy)-6-(4-cyanophenyl)-N-{3-[(S)-imino(methyl)oxo-λ^6-sulfanyl]phenyl}-5-methylpyridazine-4-carboxamide]
0.04 to 0.2 µM | 0.04 to 0.2 µM | COc1cc(C#N)ccc1Oc1nnc(C(F)(F)F)c(C)c1C(=O)Nc1cnc(C(N)=O)s1 [Compound 1538, 5-[[3-(4-cyano-2-methoxy-phenoxy)-5-methyl-6-(trifluoromethyl)pyridazine-4-carbonyl]amino]thiazole-2-carboxamide]
0.02 to 0.04 µM | 0.04 to 0.2 µM | COc1cc(C#N)ccc1Oc1nnc(C(F)(F)F)c(C)c1C(=O)Nc1ccc(C(N)=O)nc1 [Compound 1539, N-(6-carbamoyl-3-pyridyl)-3-(4-cyano-2-methoxy-phenoxy)-5-methyl-6-(trifluoromethyl)pyridazine-4-carboxamide]
0.04 to 0.2 µM | 0.04 to 0.2 µM | COc1cc(C#N)ccc1Oc1nnc(C(F)(F)F)c(C)c1C(=O)Nc1cncc(C#N)c1 [Compound 1540, 3-(4-cyano-2-methoxy-phenoxy)-N-(5-cyano-3-pyridyl)-5-methyl-6-(trifluoromethyl)pyridazine-4-carboxamide]
0.2 to 0.5 µM | 0.2 to 0.5 µM | COc1cc(C#N)ccc1Oc1nnc(C(F)(F)F)c(C)c1C(=O)Nc1ccc(OC)c(C(N)=O)c1 [Compound 1541, N-(3-carbamoyl-4-methoxy-phenyl)-3-(4-cyano-2-methoxy-phenoxy)-5-methyl-6-(trifluoromethyl)pyridazine-4-carboxamide]
0.2 to 0.5 µM | 0.2 to 0.5 µM | COc1cc(C#N)ccc1Oc1nnc(C(F)(F)F)c(C)c1C(=O)Nc1cccc(C(=O)NS(C)(=O)=O)c1 [Compound 1542, 3-(4-cyano-2-methoxy-phenoxy)-5-methyl-N-[3-(methylsulfonylcarbamoyl)phenyl]-6-(trifluoromethyl)pyridazine-4-carboxamide]
0.04 to 0.2 µM | 0.04 to 0.2 µM | COc1cc(C#N)ccc1Oc1nnc(C(F)(F)F)c(C)c1C(=O)Nc1cccnc1 [Compound 1543, 3-(4-cyano-2-methoxy-phenoxy)-5-methyl-N-(3-pyridyl)-6-(trifluoromethyl)pyridazine-4-carboxamide]
0.02 to 0.04 µM | 0.04 to 0.2 µM | COc1cc(C#N)ccc1Oc1nnc(C(F)(F)F)c(C)c1C(=O)Nc1ccc[n+]([O-])c1 [Compound 1544, 3-(4-cyano-2-methoxy-phenoxy)-5-methyl-N-(1-oxidopyridin-1-ium-3-yl)-6-(trifluoromethyl)pyridazine-4-carboxamide]
0.2 to 0.5 µM | 0.2 to 0.5 µM | CO/N=C(\C)c1cccc(NC(=O)c2c(Oc3ccc(C#N)cc3OC)nnc(C(F)(F)F)c2C)c1 [Compound 1545, 3-(4-cyano-2-methoxy-phenoxy)-N-[3-[(E)-N-methoxy-C-methyl-carbonimidoyl]phenyl]-5-methyl-6-(trifluoromethyl)pyridazine-4-carboxamide]
0.04 to 0.2 µM | 0.04 to 0.2 µM | COC(=O)c1cccc(NC(=O)c2c(Oc3ccc(C#N)cc3OC)nnc(C(F)(F)F)c2C)c1 [Compound 1546, methyl 3-[[3-(4-cyano-2-methoxy-phenoxy)-5-methyl-6-(trifluoromethyl)pyridazine-4-carbonyl]amino]benzoate]
0.02 to 0.04 µM | 0.02 to 0.04 µM | COc1cc(C#N)ccc1Oc1nnc(C(F)(F)F)c(C)c1C(=O)Nc1cccc(C#N)c1 [Compound 1548, 3-(4-cyano-2-methoxy-phenoxy)-N-(3-cyanophenyl)-5-methyl-6-(trifluoromethyl)pyridazine-4-carboxamide]
